Assay results published in patent US20150306081A1, “Chemotherapy for Drug-Resistant Cancer Cells” (THE UNIVERSITY OF SYDNEY, priority 2012, published 2015).

Tests used:
[1] = tested on: Pgp-expressing KBV1 cells; conditions: previously reported (ref. 5); cited from earlier work
KBV1 cells [2] = assay: MTT cytotoxicity after transient knockdown of Pgp (MDR1 siRNA) in KBV1 cells; type: cell-based, Human; conditions: Pgp siRNA vs. Scr siRNA, 72 h
Method: (§1) The effect of anti-cancer agents on cellular proliferation was examined using the MTT [3-(4,5-dimethylthiazol-2-yl)-2,5-diphenyl tetrazolium] method. In this assay, 3×10^3 cells/well were seeded in 96-well plates in 100 μL of media. The next day, serially diluted drugs of interest were added. […] The cells were incubated at 37° C. in a humidified atmosphere containing 5% CO2 and 95% air for 72 h. After this incubation, 10 μL of MIT (5 mg/mL) was added to each well and the incubation continued at 37° C. for 2 h. After solubilization of the cells with 100 μL of 10% SDS-50% isobutanol in 10 mM HCl, the plates were read at 570 nm using a scanning multi-well spectrophotometer (Victor™ Multilabel Counter plate reader; Perkin Elmer, Australia). Results were analyzed to calculate the concentration of chelator or complex necessary to reduce the absorbance to 50% (IC50) of the control.
For all siRNA treatments against MDR1 (MDR1-siRNA; Cat #: 4123, Life Technologies), a siRNAlipofectamine mixture (50 nM MDR1 siRNA and 1/400 lipofectamine 2000) was added to the cells (at 30% confluency) and incubated for 72 h/37° C. prior to further experimentation. The effectiveness of Pgp knockdown was confirmed using western blot and also assessing DOX cytotoxicity via the MTT assay. As a control, scrambled siRNA (Scr siRNA; Life Technologies) was used at the same concentration as MDR1 siRNA.

[3] = tested on: Pgp expressing 2008/P200A cells; assay: MTT proliferation assay, 2008/P200A cells; type: cell-based
Method: The 2008 ovarian carcinoma cell line and the PAC-resistant 2008/P200A cell line (grown in 200 ng/mL of PAC) were kindly provided by Dr. John Allen (Centenary Institute, Sydney, Australia). Cells were grown in Dulbecco's modified Eagle's medium (DMEM; Life Technologies) with 10% (v/v) fetal calf serum (Sigma-Aldrich, St. Louis, Mo.) and supplemented with the following additions from Life Technologies: 1% (v/v) sodium pyruvate, 1% (v/v) non-essential amino acids, 100 U/mL penicillin, 100 μg/mL streptomycin, 2 mM L-glutamine and 0.28 μg/mL fungizone. The cells were then incubated at 37° C. in a humidified atmosphere of 5% CO2 and 95% air.
as §1

[4] = tested on: Pgp-expressing KBV1 cells; assay: Uptake of radio-labeled drug, KBV1 cells; type: cell-based, Human
Method: Cells were then washed on ice three times with ice-cold PBS and collected for analysis. Drug uptake was calculated as the number of drug molecules/cell. […] For studies using lysosomotropic agents, cells were pre-incubated with NH4Cl (5 mM), CLQ (100 μM) or MA (100 μM) for 30 min/37° C. prior to ^14C-Dp44mT uptake. […] For efflux assays, the same labeling procedure was conducted as in the uptake assay. […] After this procedure, the overlying media was removed using a Pasteur pipette and then placed in a counting vial. The cells were removed from the plate in 1 mL of PBS and then dispensed into a separate counting vial.

KBV1 cells [5] = assay: Lysosomal integrity, acridine orange flow cytometry, KBV1 cells; type: cell-based, Human
Method: Lysotracker® red (Life Technologies) and acridine orange (Sigma-Aldrich) are dyes showing high specificity for lysosomes and were used to determine lysosomal membrane permeability (LMP). The Lysotracker® red was visually assessed by fluorescence microscopy utilizing a Zeiss Axio Observer.Z1 Fluorescence Microscope equipped with an AxioCam camera (Zeiss, Oberkochen, Germany) and acridine orange was quantified by flow cytometry (see below).
Briefly, cells were incubated with Lysotracker® red (50 nM) for 15 min/37° C. or acridine orange (20 nM) for 15 min/37° C., washed on ice 3 times with ice-cold PBS and then incubated with Cu[Dp44mT] (25 μM) for 30 min/37° C. or Dp44mT alone (25 μM) for 30 min or 24 h/37° C.
The dyes, Rh123 and acridine orange were detected with the FACS Canto flow cytometer (BD Biosciences) and 10,000 events were acquired for every sample. Data analysis was performed using FlowJo software, version 7.5.5 (Tree Star Inc., Ashland, OR).

## CN(C)C(=S)NN=C(c1ccccn1)c1ccccn1 [Dp44mT, di-2-pyridylketone 4,4-dimethyl-3-thiosemicarbazone]
[1]
  cytotoxicity to KBV1 cells relative to KB31 cells: increased cytotoxicity
KBV1 cells [2]
  increase of IC50 by knockdown of Pgp: 10 fold
[3]; 2008/P200A cells, Val 1 μM, Ela 0.1 μM
  change of cytotoxicity in presence of Pgp inhibitors Val or Ela: significantly (p<0.001) decreased sensitivity
[3]; 72 h
  sensitivity of 2008/P200A cells compared to 2008 cells: significantly (p<0.001) increased sensitivity
[4]; KBV1 cells, NH4Cl, MA or CLQ pre-incubation 30 min/37° C.
  accumulation after pre-treatment with lysosomotropic agents: significantly (p<0.001) decreased
[4]; KBV1 cells, Val 1 μM or Ela 0.1 μM pre-incubation, versus control
  effect of Pgp inhibitors Val and Ela on uptake: significantly (p<0.001) increased the uptake
[4]; control groups, 1 μCi
  cellular accumulation in KBV1 cells relative to KB31 cells: significantly (p<0.001) less
KBV1 cells [5]; 30 min incubation
  lysosomal integrity (acridine orange): did not compromise lysosomal integrity
KBV1 cells [5]; KBV1 cells, 25 μM, 24 h
  lysosomal integrity (acridine orange): decreased lysosomal integrity
KBV1 cells [5]; KBV1 cells, 24 h, with Pgp inhibitor Val
  lysosomal damage in presence of Val: significantly (p<0.01) reduced lysosomal damage
